Data from patent US9464084B2, “P2X7 modulators” (Janssen Pharmaceutica NV, priority 2013, dated 2016).

Target: P2X7 (Homo sapiens (Human), UniProt Q99572)
Test: P2X7 antagonism in human PBMCs (LPS + Bz-ATP induced IL-1β release, ELISA);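 note: PBMCs from donor human blood, with a further 1.5 h incubation of the cells in the assay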
Format: cell-based
Settings: compound 1 μM, LPS 30 ng/ml, Bz-ATP 0.5 mM
Experimental: Human blood was collected using a blood donor program. PBMCs were isolated from blood using a Ficoll density gradient technique. Briefly, blood was laid on Ficoll solution and centrifuged at RT for 20 minutes at 2000 rpm. The buffy layer (between red blood cells and plasma) was carefully collected by aspiration, washed with PBS and centrifuged again at 1500 rpm for 15 minutes. The resulting cell pellet was washed and plated on 96 well-plates for experiments. For the Mouse/Human Whole Blood experiments, 150 μl of either mouse or human blood was platted on 96 well-plates. Lipopolysaccharide (LPS) (30 ng/ml) was added to each well and incubated for 1 hour. Test compounds were then added and incubated for 30 minutes. The P2X7 agonist, 2′(3′)-O-(4-benzoylbenzoyl) adenosine 5′ triphosphate (Bz-ATP) was then added at a final concentration of 0.5 mM (PBMC) or 1 mM (blood). Cells were incubated for an additional 1.5 hours. At that point, supernatant was collected and stored for IL-1β assay using manufacturer's protocol for enzyme-linked immunosorbent assay (ELISA). Data was expressed as percent control, where control is defined as the difference in IL-1β release in LPS+Bz-ATP samples and LPS only samples. Data was plotted as response (% control) versus concentration to generate IC50 values.

Chain of P2X7 (Q99572 whole entry): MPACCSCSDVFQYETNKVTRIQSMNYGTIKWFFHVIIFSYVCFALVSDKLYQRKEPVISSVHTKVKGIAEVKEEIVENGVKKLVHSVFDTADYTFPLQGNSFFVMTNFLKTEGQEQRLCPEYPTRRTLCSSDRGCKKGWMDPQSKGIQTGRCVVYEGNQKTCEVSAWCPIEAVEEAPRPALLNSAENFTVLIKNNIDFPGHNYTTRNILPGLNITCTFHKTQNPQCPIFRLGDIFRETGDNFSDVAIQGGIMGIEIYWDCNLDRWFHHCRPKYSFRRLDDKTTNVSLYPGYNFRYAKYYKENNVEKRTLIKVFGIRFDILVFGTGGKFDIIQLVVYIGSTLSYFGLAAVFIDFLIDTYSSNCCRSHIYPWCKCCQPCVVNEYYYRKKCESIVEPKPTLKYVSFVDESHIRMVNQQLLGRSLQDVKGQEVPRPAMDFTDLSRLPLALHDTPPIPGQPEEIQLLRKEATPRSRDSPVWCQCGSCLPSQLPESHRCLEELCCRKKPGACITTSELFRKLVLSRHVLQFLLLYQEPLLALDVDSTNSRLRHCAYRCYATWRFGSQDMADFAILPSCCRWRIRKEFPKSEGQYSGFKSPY

PBMC 1 μM (% control) | Compound
102.6 % control | C[C@@H]1c2nnn(-c3cnccn3)c2CCN1C(=O)c1cccc(C(F)(F)F)c1Cl (single isomer, unassigned) [Example 74, (4R*)-5-{[2-Chloro-3-(trifluoromethyl)phenyl]carbonyl}-4-methyl-1-pyrazin-2-yl-4,5,6,7-tetrahydro-1H-[1,2,3]triazolo[4,5-c]pyridine]
5.2 % control | C[C@H]1c2nnn(-c3cnccn3)c2CCN1C(=O)c1cccc(C(F)(F)F)c1Cl (single isomer, unassigned) [Example 75, (4 S*)-5-{[2-Chloro-3-(trifluoromethyl)phenyl]carbonyl}-4-methyl-1-pyrazin-2-yl-4,5,6,7-tetrahydro-1H-[1,2,3]triazolo[4,5-c]pyridine]

Same assay, conditions: compound 10 μM, LPS 30 ng/ml, Bz-ATP 0.5 mM

PBMC 10 μM (% control) | Compound
−0.3 % control | C[C@H]1c2nnn(-c3cnccn3)c2CCN1C(=O)c1cccc(C(F)(F)F)c1Cl (single isomer, unassigned) [Example 75, (4 S*)-5-{[2-Chloro-3-(trifluoromethyl)phenyl]carbonyl}-4-methyl-1-pyrazin-2-yl-4,5,6,7-tetrahydro-1H-[1,2,3]triazolo[4,5-c]pyridine]
13.3 % control | CC1c2nnn(-c3ncccn3)c2CCN1C(=O)c1cccc(C(F)(F)F)c1Cl (single isomer, unassigned) [Example 88, (4R*)-5-{[2-Chloro-3-(trifluoromethyl)phenyl]carbonyl}-4-methyl-1-pyrimidin-2-yl-4,5,6,7-tetrahydro-1H-[1,2,3]triazolo[4,5-c]pyridine]
−0.2 % control | C[C@@H]1c2nnn(-c3cc[nH]n3)c2CCN1C(=O)c1cccc(C(F)(F)F)c1Cl (single isomer, unassigned) [Example 133, (R*)-(2-Chloro-3-(trifluoromethyl)phenyl)(4-methyl-1-(1H-pyrazol-5-yl)-6,7-dihydro-1H-[1,2,3]triazolo[4,5-c]pyridin-5(4H)-yl)methanone]
12.3 % control | C[C@H]1c2nnn(-c3ccn[nH]3)c2CCN1C(=O)c1cccc(C(F)(F)F)c1Cl (single isomer, unassigned) [Example 134, (S*)-(2-Chloro-3-(trifluoromethyl)phenyl)(4-methyl-1-(1H-pyrazol-5-yl)-6,7-dihydro-1H-[1,2,3]triazolo[4,5-c]pyridin-5(4H)-yl)methanone]
−9.6 % control | C[C@@H]1c2nnn(-c3cc(F)ccn3)c2CCN1C(=O)c1cccc(C(F)(F)F)c1Cl (single isomer, unassigned) [Example 148, (R*)-(2-Chloro-3-(trifluoromethyl)phenyl)(1-(4-fluoropyridin-2-yl)-4-methyl-6,7-dihydro-1H-[1,2,3]triazolo[4,5-c]pyridin-5(4H)-yl)methanone]
3.5 % control | C[C@H]1c2nnn(-c3cc(F)ccn3)c2CCN1C(=O)c1cccc(C(F)(F)F)c1Cl (single isomer, unassigned) [Example 149, (S*)-(2-Chloro-3-(trifluoromethyl)phenyl)(1-(4-fluoropyridin-2-yl)-4-methyl-6,7-dihydro-1H-[1,2,3]triazolo[4,5-c]pyridin-5(4H)-yl)methanone]
19.5 % control | COc1ccnc(-n2nnc3c2CCN(C(=O)c2cccc(C(F)(F)F)c2Cl)[C@H]3C)c1 (single isomer, unassigned) [Example 151, (R*)-(2-Chloro-3-(trifluoromethyl)phenyl)(1-(4-methoxypyridin-2-yl)-4-methyl-6,7-dihydro-1H-[1,2,3]triazolo[4,5-c]pyridin-5(4H)-yl)methanone]
15.4 % control | COc1ccnc(-n2nnc3c2CCN(C(=O)c2cccc(C(F)(F)F)c2Cl)[C@@H]3C)c1 (single isomer, unassigned) [Example 152, (S*)-(2-Chloro-3-(trifluoromethyl)phenyl)(1-(4-methoxypyridin-2-yl)-4-methyl-6,7-dihydro-1H-[1,2,3]triazolo[4,5-c]pyridin-5(4H)-yl)methanone]

More lines, now with the values behind:

Compound | PBMC 10 μM (% control)
C[C@@H]1c2ncn(-c3ccc(F)cn3)c2CCN1C(=O)c1cccc(C(F)(F)F)c1Cl (single isomer, unassigned) [Example 40, (R*)-(2-chloro-3-(trifluoromethyl)phenyl)(1-(5-fluoropyridin-2-yl)-4-methyl-6,7-dihydro-1H-imidazo[4,5-c]pyridin-5(4H)-yl)methanone] | 36.5 % control
C[C@@H]1c2ncn(-c3ccccn3)c2CCN1C(=O)c1cccc(C(F)(F)F)c1F (single isomer, unassigned) [Example 42, (4R*)-5-{[2-Fluoro-3-(trifluoromethyl)phenyl]carbonyl}-4-methyl-1-pyridin-2-yl-4,5,6,7-tetrahydro-1H-imidazo[4,5-c]pyridine] | 5.8 % control
C[C@H]1c2ncn(-c3ccccn3)c2CCN1C(=O)c1cccc(C(F)(F)F)c1F (single isomer, unassigned) [Example 43, (4 S*)-5-{[2-Fluoro-3-(trifluoromethyl)phenyl]carbonyl}-4-methyl-1-pyridin-2-yl-4,5,6,7-tetrahydro-1H-imidazo[4,5-c]pyridine] | 77.8 % control
C[C@@H]1c2ncn(-c3ccccn3)c2CCN1C(=O)c1cccc(C(F)(F)F)c1Cl (single isomer, unassigned) [Example 44, (4R*)-5-{[2-Chloro-3-(trifluoromethyl)phenyl]carbonyl}-4-methyl-1-pyridin-2-yl-4,5,6,7-tetrahydro-1H-imidazo[4,5-c]pyridine] | 44.7 % control
C[C@H]1c2ncn(-c3ccccn3)c2CCN1C(=O)c1cccc(C(F)(F)F)c1Cl (single isomer, unassigned) [Example 45, (4 S*)-5-{[2-Chloro-3-(trifluoromethyl)phenyl]carbonyl}-4-methyl-1-pyridin-2-yl-4,5,6,7-tetrahydro-1H-imidazo[4,5-c]pyridine] | 29.4 % control
C[C@@H]1c2ncn(-c3ccc(F)cc3)c2CCN1C(=O)c1cccc(C(F)(F)F)c1Cl (single isomer, unassigned) [Example 46, (4R*)-5-{[2-Chloro-3-(trifluoromethyl)phenyl]carbonyl}-1-(4-fluorophenyl)-4-methyl-4,5,6,7-tetrahydro-1H-imidazo[4,5-c]pyridine] | 2.1 % control
C[C@H]1c2ncn(-c3ccc(F)cc3)c2CCN1C(=O)c1cccc(C(F)(F)F)c1Cl (single isomer, unassigned) [Example 47] | −1.1 % control
C[C@H]1c2nnn(-c3ncccn3)c2CCN1C(=O)c1cccc(C(F)(F)F)c1Cl (single isomer, unassigned) [Example 87, (4S*)-5-{[2-Chloro-3-(trifluoromethyl)phenyl]carbonyl}-4-methyl-1-pyrimidin-2-yl-4,5,6,7-tetrahydro-1H-[1,2,3]triazolo[4,5-c]pyridine] | 21.7 % control
C[C@H]1Cc2c(nnn2-c2ccccn2)CN1C(=O)c1cccc(C(F)(F)F)c1Cl (single isomer, unassigned) [Example 118, 5-{[2-Chloro-3-(trifluoromethyl)phenyl]carbonyl}-(S*)-6-methyl-1-pyridin-2-yl-4,5,6,7-tetrahydro-1H-[1,2,3]triazolo[4,5-c]pyridine] | 12.6 % control
C[C@@H]1Cc2c(nnn2-c2ccccn2)CN1C(=O)c1cccc(C(F)(F)F)c1Cl (single isomer, unassigned) [Example 119, 5-{[2-Chloro-3-(trifluoromethyl)phenyl]carbonyl}-(R*)-6-methyl-1-pyridin-2-yl-4,5,6,7-tetrahydro-1H-[1,2,3]triazolo[4,5-c]pyridine] | 20.0 % control
C[C@@H]1c2nnn(-c3cnccn3)c2CCN1C(=O)c1ccc(F)c(Cl)c1Cl (single isomer, unassigned) [Example 143, (R*)-(2,3-Dichloro-4-fluorophenyl)(4-methyl-1-(pyrazin-2-yl)-6,7-dihydro-1H-[1,2,3]triazolo[4,5-c]pyridin-5(4H)-yl)methanone] | 58.0 % control
C[C@H]1c2nnn(-c3cnccn3)c2CCN1C(=O)c1ccc(F)c(Cl)c1Cl (single isomer, unassigned) [Example 144, (S*)-(2,3-Dichloro-4-fluorophenyl)(4-methyl-1-(pyrazin-2-yl)-6,7-dihydro-1H-[1,2,3]triazolo[4,5-c]pyridin-5(4H)-yl)methanone] | 19.6 % control
C[C@H]1c2nnn(-c3ncc(F)cn3)c2CCN1C(=O)c1cccc(C(F)(F)F)c1Cl (single isomer, unassigned) [Example 157, (S*)-(2-Chloro-3-(trifluoromethyl)phenyl)(1-(5-fluoropyrimidin-2-yl)-4-methyl-6,7-dihydro-1H-[1,2,3]triazolo[4,5-c]pyridin-5(4H)-yl)methanone] | −1.4 % control
C[C@@H]1c2nnn(-c3ncc(F)cn3)c2CCN1C(=O)c1cccc(C(F)(F)F)c1Cl (single isomer, unassigned) [Example 158, (R*)-(2-Chloro-3-(trifluoromethyl)phenyl)(1-(5-fluoropyrimidin-2-yl)-4-methyl-6,7-dihydro-1H-[1,2,3]triazolo[4,5-c]pyridin-5(4H)-yl)methanone] | 1.1 % control
C[C@H]1c2nnn(-c3ncc(F)cn3)c2CCN1C(=O)c1ccnc(C(F)(F)F)c1Cl (single isomer, unassigned) [Example 164, (S*)-(3-chloro-2-(trifluoromethyl)pyridin-4-yl)(1-(5-fluoropyrimidin-2-yl)-4-methyl-6,7-dihydro-1H-[1,2,3]triazolo[4,5-c]pyridin-5(4H)-yl)methanone] | 98.1 % control
C[C@@H]1Cc2c(nnn2-c2ncccc2F)CN1C(=O)c1cccc(Cl)c1Cl (single isomer, unassigned) [Example 165, (6R*)-5-[(2,3-Dichlorophenyl)carbonyl]-1-(3-fluoropyridin-2-yl)-6-methyl-4,5,6,7-tetrahydro-1H-[1,2,3]triazolo[4,5-c]pyridine] | 60.7 % control
C[C@H]1Cc2c(nnn2-c2ncccc2F)CN1C(=O)c1cccc(Cl)c1Cl (single isomer, unassigned) [Example 166, (6S*)-5-[(2,3-Dichlorophenyl)carbonyl]-1-(3-fluoropyridin-2-yl)-6-methyl-4,5,6,7-tetrahydro-1H-[1,2,3]triazolo[4,5-c]pyridine] | 0.6 % control
